Results taken from patent EP2108954A1, “A test system for detecting intracellular cyclic nucleotide level and methods and uses thereof” (Max-Planck-Gesellschaft zur Förderung der Wissenschaften …, priority 2008, dated 2009).

Key:
Assay type in all cases: cell-based
Or22a and Or83b [1] = target: T1, Or22a and Or83b (Drosophila melanogaster, UniProt P81909+Q9VNB5); experiment: Calcium imaging (fura-2) in HEK293 cells coexpressing Or22a and Or83b; settings: dependent on Etb concentration and on extracellular Ca^2+
T1 construct: expressed in transfected cells; host or cells: HEK293
T1 sequence (P81909 1-397): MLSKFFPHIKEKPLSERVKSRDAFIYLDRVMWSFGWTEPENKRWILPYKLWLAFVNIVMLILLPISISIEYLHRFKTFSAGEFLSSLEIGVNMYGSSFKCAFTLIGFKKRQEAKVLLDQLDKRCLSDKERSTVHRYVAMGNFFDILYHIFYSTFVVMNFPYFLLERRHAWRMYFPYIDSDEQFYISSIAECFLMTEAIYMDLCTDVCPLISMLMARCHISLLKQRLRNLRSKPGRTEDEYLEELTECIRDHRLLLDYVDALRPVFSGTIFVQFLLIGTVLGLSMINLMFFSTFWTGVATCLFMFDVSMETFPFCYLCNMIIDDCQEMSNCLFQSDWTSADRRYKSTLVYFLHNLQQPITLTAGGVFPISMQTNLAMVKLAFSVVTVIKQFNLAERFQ
T1 sequence (Q9VNB5 1-486): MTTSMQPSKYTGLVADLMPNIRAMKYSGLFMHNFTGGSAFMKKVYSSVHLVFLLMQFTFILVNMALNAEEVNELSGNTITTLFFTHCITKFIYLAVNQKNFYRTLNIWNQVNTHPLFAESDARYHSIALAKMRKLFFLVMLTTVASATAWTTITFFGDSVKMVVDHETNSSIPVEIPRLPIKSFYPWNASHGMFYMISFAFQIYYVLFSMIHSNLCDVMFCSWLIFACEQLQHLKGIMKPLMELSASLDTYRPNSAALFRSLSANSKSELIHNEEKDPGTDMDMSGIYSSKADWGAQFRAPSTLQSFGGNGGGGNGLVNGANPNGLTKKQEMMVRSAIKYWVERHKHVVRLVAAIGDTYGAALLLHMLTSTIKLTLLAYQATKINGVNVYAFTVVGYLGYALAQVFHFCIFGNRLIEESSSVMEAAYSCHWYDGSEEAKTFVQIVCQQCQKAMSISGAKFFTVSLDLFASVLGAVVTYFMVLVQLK
Procedure: Free intracellular Ca^2+ concentration ([Ca^2+]i) was determined by fura-2 fluorescence as described (Messutat et al., Cell Calcium 30, 199-211. (2001)). In brief, cells were loaded with fura-2 by incubation in bath solution containing 2 µM fura-2/acetomethylester for 20 min. Free intracellular Ca^2+ concentration ([Ca^2+]i) was determined with the fluorescence ratio method. Excitation of fura-2 at 340 and 380 nm was performed with a monochromator (Polychrome II, T.I.L.L. Photonics, Gräfelfing, Germany) coupled via an epifluorescence condenser into an Axioskop FS microscope (Carl Zeiss, Jena, Germany) with a water immersion objective (LUMPFL 40xW/IR/0.8; Olympus, Hamburg, Germany). […] [Ca^2+]i was calculated according to the equation [Ca^(2 +)]i = Keff (R-Rmin)/(Rmax-R). […] Keff, Rmin, and Rmax were determined using HEK293 cells permeabilized with 2 µM ionomycin and three solutions with different concentrations of free Ca^2+ (Ca^2+ free; 5 mM Ca^2+; 500 nM Ca^2+; the composition of the 500 nM solution was calculated with WEBMAXC v.2.20) (Patton et al., Cell Calcium 35, 427-31 (2004)). […]
Fluorescence images were acquired using a cooled CCD camera controlled by TILLVision 4.0 software (T.I.L.L. Photonics). […] Image pairs were obtained by excitation for 100 ms at 340 nm and 380 nm; background fluorescence was subtracted.

Or83b = target: T2, Or83b (Drosophila melanogaster, UniProt Q9VNB5); experiment: Whole-cell patch-clamp of HEK293 cells expressing Or83b alone; design: expressed in transfected cells; host or cells: HEK293; settings: HEK293 cells transfected with Or83b alone; whole-cell, -60 mV; n = 6
T2 sequence (Q9VNB5 1-486): T1 sequence (Q9VNB5 1-486)
Procedure: In some experiments we transfected cells with pcDNA3-DOR22a-GFP or pcDNA3-DOR83b-GFP alone. We also examined the properties of DOR47a, which was cloned, using standard molecular biology methods into a pcDNA3.1(-) expression vector. To test for putative G-protein coupling, cells were transfected with the respective OR-DNA together with 1.5 µg hHCN2/pcDNA3 (provided by M. Biel, Munich, Germany), with 1 µg hKCNQ4/pcDNA3.1 or with 1 µg hCNGA2/pCMV6-XL4 (Origene, Rockville, MD, USA).
In brief, ion currents in HEK293 cells were measured at room temperature using whole-cell patch-clamp with appropriate compensation of series resistance and of capacitive currents. Additional experiments were performed in the outside-out configuration. Current measurements and data acquisition were performed using an EPC9 patch-clamp amplifier controlled by PatchMaster software (both HEKA Elektronik, Lambrecht, Germany). Patch-clamp pipettes were fabricated from borosilicate capillaries. Pipettes for whole-cell recordings had resistances of 2-4 MΩ for excised-patch recordings the pipette resistance was up to 15 MΩ.
To differentiate between ionotropic and metabotropic pathways of receptor activation (Fig. 2a-d) the pipette solution contained either 2 mM ATP plus 2 mM GTP or 2 mM ADP plus 2 mM GDP (both for whole-cell and outside-out configuration). For the preparation of Cl^--free solutions the chloride salts were substituted by gluconate salts. The pipette Cs^+ solution contained (in mM) 140 CsCl, 1 Mg-ATP, 10 EGTA, 10 HEPES (pH = 7.3), and the Cs^+ bath solution contained (in mM) 140 CsCl, 15 glucose, 15 HEPES (pH = 7.4). The Ca^2+-free bath solution contained (in mM) 140 NaCl, 15 glucose, 15 HEPES, and the Na^+-free bath solution contained (in mM) 140 NMDG-Cl, 10 CaCl2, 10 glucose, 15 HEPES.
With the exception of GDP-γ-S, which was applied via the patch pipette, all substances were applied to the bath using either a bath perfusion system (BPS4 from ALA, New York, USA) or a rapid solution changer (RSC160 from Biologic, Claix, France) which were controlled by the PatchMaster software (HEKA Elektronik).

Or22a and Or83b [2] = target: T1, Or22a and Or83b; experiment: Radioreceptor assay of cAMP content of HEK293 cells expressing Or22a and Or83b; settings: 100 nM Etb for 15 min; n = 3 experiments; control 1.28 ± 0.06
Procedure: Monolayers of HEK293 cells were incubated for 30 min in HEPES Ringer's buffer containing 1 mM isobutylmethylxanthine and stimulated with 100 nM Etb for 15 min. The reaction was stopped with 96% ethanol, and after evaporation, 50 mM Tris/4 mM EDTA (pH 7.5) was added.

Or22a and Or83b [3] = target: T1, Or22a and Or83b; experiment: Whole-cell patch-clamp of currents in HEK293 cells coexpressing Or22a and Or83b; settings: 500 µM GDP-β-S in the pipette; n = 11

How did the “intracellular Ca^2+ concentration ([Ca^2+]i)” value (Or22a and Or83b [1]) turn out when CCCC(=O)OCC [Etb, ethyl butyrate] was run?
The value was “increased intracellular Ca^2+ concentration”.

What about the “inward current upon short Etb application” value (Or83b) of the same compound?
Its value is “no current was observed”.

What about the cAMP level (Or22a and Or83b [2]) of the same compound?
The cAMP level was 1.65 ± 0.10 pmol/mg protein.

And the “Hill coefficient of Etb-induced currents” value (Or22a and Or83b [3])?
The value was 1.1.
